Reference: patent US10287581B2, “Cell penetrating peptides for intracellular delivery of molecules” (AADIGEN, LLC, priority 2011, dated 2019)

Legend:
[1] = system: PC3 xenografted tumors; experiment: Tumour growth in PC3-xenografted mice, cyclin B1 siRNA; format: in vivo
Method: FIGS. 11A-11D: NANOPEP-6 Cyclin B1 siRNA delivery upon topical and systemic injection. Athymic female nude mice were subcutaneously inoculated into the flank with 1×10^6 PC3 (11A and 11B) or HT29 (11C and 11D). Two to three weeks after tumour implant, when tumour size reached about 100 mm^3, animals were treated by intratumoral (11A and 11C) injections, every 3 days, with a solution either saline buffer solution (closed triangle), free Cyc-B1 siRNA (open triangle), control siRNA Cyc-B3 (closed box) or Cyc-B1 siRNA at 5 μg (open circle) and 10 μg (closed circle) complexed with NANOPEP-6 at a 1/20 molar ratio. […] Tumour diameter was measured in two directions at regular intervals using a digital calliper and tumour volume was calculated as length×width×height×0.52. […]
Tumour diameter was measured in two directions at regular intervals using a digital calliper and tumour volume was calculated as length×width×height×0.52. […] The statistical significance of the results was calculated by Student's t test and p<0.05 considered to be statistically significant. […]
The potential of NANOPEP-6 (VEPEP6/VEPEP6) to deliver cyclin B1 siRNA in vivo was first evaluated on human prostate carcinoma cell PC3-xenografted mice (FIG. 11A). The effect of local intratumoral administration of NANOPEP-6/siRNA particles (molar ratio 20/1) on the growth of established subcutaneous tumours was evaluated. […]

[2] = system: cyclin B1; experiment: Cyclin B1 silencing at protein (Western blotting) and mRNA (Quantigen) level; format: cell-based, Human; details: 200 nM siRNA complexed with VEPEP-6 at a 1/20 ratio
Method: FIGS. 6A-6C: VEPEP-6 dose response of Cyclin B1 silencing at the protein and mRNA levels on Hela (6A) and HS68 (6B) cells. Stock solution of VEPEP-6/siRNA ([…]) particles were prepared at a molar ratio of 1/20 (siRNA/VEPEP-6), and lower concentrations (from 200 nM to 0.125 nM) were obtained by serial dilution of the stock solution in PBS. HeLa (Panel A) and HS-68 (Panel B) cells (60% confluency) were overlaid with preformed complexes for 30 min, then fresh DMEM supplemented with 10% FCS was added directly to the cells, which were then returned to the incubator for 24 hrs. Cyclin B1 protein levels were determined by Western Blotting using Cdk2 as a control for quantification (white bars). Cyclin B1 mRNA levels were measured 12 hrs after transfection using Quantigen technology (black bars). Mismatched Cyc-B3 siRNA associated with VEPEP-6 (200 nM) and empty VEPEP-6 particles (20 μM) were used as a control. 6C: Dose-response of G2-arrest associated with Cyclin B1 silencing. HeLa (black bars) and HS68 (white bars) cells were treated with increasing concentrations of VEPEP-6/siRNA-Cyc-B1 from 0.25 nM to 20 nM. The cell cycle status was evaluated by FACS analysis. […]
Cyclin B1 mRNA and protein levels were determined 12 and 24 hrs following transduction, using Quantigen (Panomics Inc.) and Western blotting, respectively. […]

Cyc-B3: cyclin B1 siRNA harbouring two mismatches, control, SEQ ID No: 19/20 (chain 1 GGUGAAGAUCAGCAUGGCATT; chain 2 UGCCAUGUCGAUCUUCACCTT; chemistry not given here)
inhibition of tumour growth ([1]; complexed with NANOPEP-6, 0.5 mg/kg): unable to inhibit tumour growth | effect on cyclin B1 levels and cell cycle progression [2]: no effect

naked siRNA: Cyc-B1 siRNA without carrier, SEQ ID No: 17/18 (chain 1 GGCGAAGAUCAACAUGGCATT; chain 2 UGCCAUGUUGAUCUUCGCCTT; chemistry not given here)
effect on tumour growth ([1]; controls: naked siRNA 100 (intratumoral or intravenous), carrier alone): no significant effect
